Literature values, collected in US20040132806A1, “Pravastatin pharmaceutical formulations and methods of their use” (priority 2002, published 2004).
Where two headings read alike, the source gives them in different places.

Legend:
[1] = intravenous, radiolabeled
[2] = patients treated with pravastatin (Schatke et al, 1992)
[3] = such as the stomach
[4] = not given; remark: listed apart in the source

- share of total body clearance by non-renal routes (biliary excretion and biotransformation) [1]: ~53%
- share of total body clearance via renal excretion [1]: approximately 47%
- myopathy [2]: Severe myopathy has been observed
- hepatic extraction ratio (Lennernas & Fager, 1997): 0.45
- hepatic extraction ratio (Quion & Jones, 1994): 0.66
- first-pass extraction in the liver (extraction ratio) (in vivo): 0.66
- stability in acidic conditions [3]: poor stability
- decrease of systemic bioavailability following a bedtime dose (PM) compared to morning (AM) dose ([4]; PM vs AM dose): 60%
- average oral absorption ([4]; based on urinary recovery of radiolabeled drug): 34%
- radiolabeled oral dose excreted in the feces ([4]; oral radiolabeled dose): ~70%
- radiolabeled oral dose excreted in urine ([4]; oral radiolabeled dose): Approximately 20%
Compound: CC[C@H](C)C(=O)O[C@H]1C[C@H](O)C=C2C=C[C@H](C)[C@H](CC[C@@H](O)C[C@@H](O)CC(=O)O)[C@H]21 [pravastatin, Pravastatin]
